Test results taken from ChEMBL document CHEMBL3271949, “Drugs derived from cannabinoids. 3. Sulfur analogs, thiopyranobenzopyrans and thienobenzopyrans” (J Med Chem, 1976).
Active and inactive are the calls of the source.

Experiments:
Mus musculus [1] = experiment: Tranquilizer activity in albino BALB/cJ mouse assessed as reduction in footshock-induced fighting behavior at 10 mg/kg, po after 90 mins; format: functional; parameters: scale not given: the % may be the effect or the level left
Rattus norvegicus [2] = experiment: Spontaneous motor activity in Long-Evans rat at 5 mg/kg measured up to 2 hrs relative to control; format: functional
Mus musculus [3] = organism: Mus musculus; experiment: Analgetic activity in mouse by hot-plate test; format: functional
Canis familiaris [4] = experiment: Toxicity in beagle-like dog assessed as reduced reactivity with ataxia observed for 24 hrs at 10 mg/kg, po single dose; format: organism-based, Canis lupus familiaris; parameters: dose 10 mg/kg, route oral; conditions: in vivo
Mus musculus [5] = experiment: Antinociceptive activity in po dosed mouse assessed as inhibition of acetic acid-induced writhing administered 30 mins before acetic acid challenge measured after 5 to 20 mins; format: functional
Mus musculus [6] = experiment: Antidepressant activity in mouse assessed as potentiation of (+/-)-dopa-induced motor responses at 5 mg/kg, po administered 4 hrs before dopa challenge; format: functional, organism-based; parameters: dose 5 mg/kg
[7] = Toxicity in po dosed mouse; format: organism-based; conditions: in vivo
Mus musculus [8] = experiment: Tranquilizer activity in albino BALB/cJ mouse assessed as reduction in footshock-induced fighting behavior at 5 mg/kg, po after 90 mins; format: functional; parameters: scale not given: the % may be the effect or the level left
Canis familiaris [9] = experiment: Toxicity in beagle-like dog assessed as reduced reactivity with ataxia observed for 24 hrs at 1 mg/kg, po single dose; format: organism-based, Canis lupus familiaris; parameters: dose 1 mg/kg, route oral; conditions: in vivo
Felis catus = experiment: Sedative-hypnotic activity in po dosed cat assessed as rapid eye movement sleep; format: functional, organism-based
Rattus norvegicus [10] = experiment: Antihypertensive activity in spontaneous hypertensive rat assessed as reduction of blood pressure at 10 mg/kg, po after 48 hrs; format: functional; parameters: scale not given: the % may be the effect or the level left
Rattus norvegicus [11] = experiment: Analgetic activity in po dosed Sprague-Dawley rat assessed as pain threshold after 15 to 90 mins by tail-flick test; format: functional
Rattus norvegicus [12] = experiment: Antihypertensive activity in spontaneous hypertensive rat assessed as reduction of blood pressure at 10 mg/kg, po after 24 hrs; format: functional; parameters: scale not given: the % may be the effect or the level left
Rattus norvegicus [13] = experiment: Antihypertensive activity in spontaneous hypertensive rat assessed as reduction of blood pressure at 10 mg/kg, po after 4 hrs; format: functional; parameters: scale not given: the % may be the effect or the level left
Canis familiaris [14] = experiment: Toxicity in beagle-like dog assessed as reduced reactivity with ataxia observed for 24 hrs at 0.1 mg/kg, po single dose; format: organism-based, Canis lupus familiaris; parameters: dose 0.1 mg/kg, route oral; conditions: in vivo
Rattus norvegicus [15] = experiment: Spontaneous motor activity in Long-Evans rat at 10 mg/kg measured up to 2 hrs relative to control; format: functional

| Compound | Activity (Mus musculus [1]) [%] | Activity (Rattus norvegicus [2]) [%] | ED50 (Mus musculus [3]) [mg/kg] | Activity (Canis familiaris [4]) | ED50 (Mus musculus [5]) [mg/kg] | Activity (Mus musculus [6]) | LD50 [7] [mg/kg] | Activity (Mus musculus [8]) [%] | Activity (Canis familiaris [9]) | Activity (Felis catus) | Activity (Rattus norvegicus [10]) [%] | ED50 (Rattus norvegicus [11]) [mg/kg] | Activity (Rattus norvegicus [12]) [%] | Activity (Rattus norvegicus [13]) [%] | Activity (Canis familiaris [14]) | Activity (Rattus norvegicus [15]) [%] |
| --- | --- | --- | --- | --- | --- | --- | --- | --- | --- | --- | --- | --- | --- | --- | --- | --- |
| CCCCCC(C)C(C)c1cc(O)c2c(c1)OC(C)(C)C1=C2CSC1 (stereo unspecified) | 33 | 1 | > 120 | Toxic | 51.7 | Active | > 300 | – | – | – | – | – | – | – | – | – |
| CCCCCC(C)C(C)c1cc(O)c2c(c1)OC(C)(C)c1sccc1-2 (stereo unspecified) | 1 | 1 | – | – | > 10 | Active | > 300 | – | – | – | – | – | – | – | – | – |
| CCCCCC(C)C(C)c1cc(OC(=O)CCCN2CCCCC2)c2c(c1)OC(C)(C)C1=C2CCCS1.Cl (stereo unspecified) | – | 66 | – | – | 14.7 | Active | > 300 | 1 | – | – | – | – | – | – | – | – |
| CCCCCC(C)C(C)c1cc(OC(=O)CCCN2CCCCC2)c2c(c1)OC(C)(C)C1=C2CCS1.Cl (stereo unspecified) | 33 | 1 | – | – | 24 | Active | > 300 | – | Non-toxic | – | – | – | – | – | – | – |
| CCCCCC(C)C(C)c1cc(OC(=O)C(C)CCN2CCOCC2)c2c(c1)OC(C)(C)C1=C2CCCS1.Cl.O (stereo unspecified) | 66 | 1 | – | – | 22.6 | Active | > 300 | – | – | inactive | – | – | – | – | – | – |
| CCCCCC(C)C(C)c1cc(O)c2c(c1)OC(C)(C)C1=C2CCCS1 (stereo unspecified) [TINABINOL] | 1 | 1 | 5.7 | – | 8.6 | Active | > 300 | – | Toxic | inactive | 19 | 2.7 | 28 | 15 | – | – |
| CCCCCC(C)C(C)c1cc(O)c2c(c1)OC(C)(C)C1=C2CCS1 (stereo unspecified) | 33 | 1 | 12.1 | – | 71.8 | Active | > 300 | 1 | – | Active | – | – | 2 | 17 | Toxic | – |
| CCCCCC(C)C(C)c1cc(O)c2c(c1)OC(C)(C)C1=C2CCSC1 (stereo unspecified) | – | – | > 40 | Toxic | > 40 | Active | > 300 | 1 | – | – | – | – | – | – | – | 1 |
| CCCCCC(C)C(C)c1cc(OC(=O)CCCN2CCOCC2)c2c(c1)OC(C)(C)C1=C2CCS1.Cl (stereo unspecified) | 33 | 1 | > 50 | – | – | Active | > 300 | 1 | Non-toxic | – | – | – | – | – | – | – |
